Data published in patent US10226449B2, “Heterocyclic modulators of lipid synthesis and combinations thereof” (priority 2013, dated 2019).
pEC50: −log10 of the molar value. Read-outs that look alike come from different tables or passages of the source.

Legend:
[1] = mouse, in vivo
Method: (§1) The day of tumor cell inoculation is denoted as day 0. Drug treatment was initiated when the mean tumor size reached 149 mm^3 (day 15). […] Mice were assigned into treatment groups using a randomized block design based upon their tumor volumes. […] Tumor sizes were measured twice weekly in two dimensions using a caliper, and the volumes were expressed in mm^3 using the formula: V=0.5 a×b2 where a and b were the long and short diameters of the tumor, respectively. The study was terminated 6 hours post the 18th Qd dose on day 32 after tumor inoculation. Tumor growth inhibition (TGI) was calculated as the percentage of tumor growth, relative to tumor size at the start of treatment, in drug-treated groups compared to vehicle-treated groups. The Mann-Whitney U test was used to assess statistical significance of the mean tumor size between drug and vehicle-treated groups.

[2] = Tolerability in the single agent PANC-1 xenograft study; conditions: 30/20 mg/kg Q5d; 18-day study; PANC-1 xenograft mice, 10 per group
Method: as §1

HCV1b replicon = HCV1b replicon antiviral assay (luciferase reporter); type: cell-based; conditions: Hepatitis C virus; HCV genotype 1b replicon; read-out: HCV GT1b EC50
Method: The antiviral activities of the compounds were assessed using the HCV1b replicon system. […] HCV RNA replicon levels were assessed using the Bright-Glo™ Luciferase Assay System (Promega) to measure replicon-derived Luc activity.

[3] = mouse, in vivo; remark: listed apart in the source
Method: (§2) The day of tumor cell inoculation is denoted as day 0. After inoculation, the animals were checked daily for morbidity and mortality. At the time of routine monitoring, the animals were checked for any effects of tumor growth and treatments on normal behavior such as mobility, visual estimation of food and water consumption, body weight gain/loss (body weights were measured twice weekly), eye/hair matting and any other abnormal signs. […] Mice were assigned into treatment groups using a randomized block design based upon their tumor volumes. […] Tumor sizes were measured twice weekly in two dimensions using a caliper, and the volumes were expressed in mm^3 using the formula: V=0.5*(a*b^2) where a and b were the long and short diameters of the tumor, respectively. The study was terminated 6 hours post the last dose 17-28 days after treatment initiation. Tumor growth inhibition (TGI) was calculated as the percentage of tumor growth, relative to tumor size at the start of treatment, in drug-treated groups compared to vehicle-treated groups. The Mann-Whitney U test was used to assess statistical significance of the mean tumor size between drug and vehicle-treated groups

[4] = mouse, in vivo; remark: listed apart in the source
Method: as §2

PANC-1 xenograft tumors = assay: PANC-1 pancreatic xenograft tumor growth inhibition with gemcitabine; type: in vivo, BALB/c-nude mice
Method: as §2

CALU-6 xenograft tumors = assay: CALU-6 lung xenograft tumor growth inhibition with paclitaxel; type: in vivo, BALB/c-nude mice; conditions: for TGI vs. Vehicle: day 21 post treatment start
Method: as §2
The study was terminated 21 days after initiation of treatment.

[5] = test system: COLO-205 xenograft tumors; assay: COLO-205 colon xenograft tumor growth inhibition with irinotecan
Method: as §2

[6] = mouse, in vivo; remark: listed apart in the source
Method: as §2

OVCAR-8 xenograft tumors = assay: OVCAR-8 ovarian xenograft tumor growth inhibition with paclitaxel; type: in vivo, BALB/c-nude mice; conditions: day 21 post treatment start
Method: as §2
The study was terminated 28 days after initiation of treatment.

[7] = irinotecan 10 mg/kg ip Q4d, single agent

## C=C1C(=O)O[C@@H](CCCCCCCC)[C@@H]1C(=O)O (relative stereo) [Compound C75, trans-4-methylene-2-octyl-5-oxotetrahydrofuran-3-carboxylic acid]
[1]
  tolerability in PANC-1 xenograft tumor-bearing mice: drug-induced weight loss and toxicity
[2]
  mice died from drug-related toxicity: Six of the ten mice in the C75 treatment group died

## CCN(CC)c1cc(C)c(C(=O)N2CCC(c3ccc(C#N)cc3)CC2)cc1-c1nnc(C)[nH]1 [Compound 129, 4-(1-(4-(diethylamino)-2-methyl-5-(5-methyl-4H-1,2,4-triazol-3-yl)benzoyl)piperidin-4-yl)benzonitrile]
HCV1b replicon
  pEC50: 5.67

## Cc1cc(C)c(-c2[nH]c(C3CCOCC3)nc2C)cc1C(=O)N1CC(F)(c2ccc(C#N)cc2)C1 [Compound 167, 4-(1-(2,4-Dimethyl-5-(4-methyl-2-(tetrahydro-2H-pyran-4-yl)-1H-imidazol-5-yl)benzoyl)-3-fluoroazetidin-3-yl)benzonitrile]
HCV1b replicon
  pEC50: 7.60

## Cc1cc(C)c(-c2[nH]nc(C)c2C)cc1C(=O)N1CC(c2ccc(C#N)cc2)C1 [Compound 242, 4-(1-(5-(3,4-Dimethyl-1H-pyrazol-5-yl)-2,4-dimethylbenzoyl)azetidin-3-yl)benzonitrile]
[3]
  tolerability in OVCAR-8 xenograft tumor-bearing mice: well tolerated as a single or combination agent
[4]
  tolerability in PANC-1 xenograft tumor-bearing mice: well tolerated as a single or combination agent
PANC-1 xenograft tumors; Compound 242 30 mg/kg po Qd for 18 days
  TGI vs. Vehicle: 9%
CALU-6 xenograft tumors; Compound 242 60 mg/kg po Qd
  TGI vs. Vehicle: 14%
CALU-6 xenograft tumors; Compound 242 100 mg/kg po Qd
  TGI vs. Vehicle: 0%
CALU-6 xenograft tumors; Compound 242 single agent at 30, 60, or 100 mg/kg once daily for 21 days
  tumor growth inhibition, range over dose groups: 0-19%
[5]; Compound 242 30 mg/kg po Qd for 20 days
  TGI vs. Vehicle: 6%
[6]
  tolerability in CALU-6 xenograft tumor-bearing mice: well tolerated as a single or combination agent
mouse, in vivo, po, 100 mg/kg
  Body Weight Change: −12.0%
OVCAR-8 xenograft tumors; Compound 242 30 mg/kg po Qd
  TGI vs. Vehicle: 46%
OVCAR-8 xenograft tumors; Compound 242 100 mg/kg po Qd
  TGI vs. Vehicle: 74%

## Cc1ccc(C(=O)N2CCC(c3ccc(C#N)cc3)CC2)cc1-c1[nH]nc(Cl)c1C [Compound 253, 4-(1-(3-(3-Chloro-4-methyl-1H-pyrazol-5-yl)-4-methylbenzoyl)piperidin-4-yl)benzonitrile]
HCV1b replicon
  pEC50: 6.66

## Nc1ccn([C@@H]2O[C@H](CO)[C@@H](O)C2(F)F)c(=O)n1 [Gemcitabine, gemcitabine, reference compound]
PANC-1 xenograft tumors; gemcitabine 10 mg/kg ip, single agent
  TGI vs. Vehicle: 31%

## CCc1c2c(nc3ccc(OC(=O)N4CCC(N5CCCCC5)CC4)cc13)-c1cc3c(c(=O)n1C2)COC(=O)[C@]3(O)CC [Irinotecan, irinotecan, reference compound]
[5]; [7]
  TGI vs. Vehicle: 57%
[7]
  Body Weight Change: −10.2%
Single agent irinotecan group, 10 mg/kg Q4d
  body weight loss: 10.2%

## CC(=O)O[C@H]1C(=O)[C@@]2(C)[C@H]([C@H](OC(=O)c3ccccc3)[C@]3(O)C[C@H](OC(=O)[C@H](O)[C@@H](NC(=O)c4ccccc4)c4ccccc4)C(C)=C1C3(C)C)[C@]1(OC(C)=O)CO[C@@H]1C[C@@H]2O [Paclitaxel, paclitaxel, reference compound]
CALU-6 xenograft tumors; paclitaxel 10 mg/kg ip Q4d
  TGI vs. Vehicle: 63%
OVCAR-8 xenograft tumors; paclitaxel 10 mg/kg ip Q4d
  TGI vs. Vehicle: 83%
